The values below come from patent US8883782B2, “Spiro-tetracyclic ring compounds as beta-secretase modulators and methods of use” (Amgen Inc., priority 2010, dated 2014).

SMILES strings stand for the structures.

The test system of test [1] is Aβ40 in conditioned medium of cells stably expressing Amyloid Precursor Protein (APP). Kind of test: In vitro BACE cell-based assay (Aβ40 in conditioned medium, sandwich ELISA). Conditions: Homo sapiens, HEK293, average IC50, HEK cells; read-out: HEK cell assay. In outline: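 Secreted Aβ40 is captured with pAb40 and detected with biotinylated 6E10, read by europium time-resolved fluorescence. IC50 comes from percent inhibition versus concentration.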
(ELISA stands for enzyme-linked immunosorbent assay.)

Test [2] addresses Beta Secretase enzyme (BACE) (Homo sapiens, UniProt P56817). Kind of test: In vitro enzymatic BACE FRET (fluorescence resonance energy transfer) assay. The test is classed as biochemical. Conditions: average IC50, enzyme assay; read-out: BACE 1 FRET assay. In outline:
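Acetate buffer (0.05 M, pH 4.2), 10% DMSO final, 100 uM nonionic detergent genapol. Substrate addition (50 nM FRET peptide) initiates; one-hour incubation; Tris raises pH to neutrality before fluorescence measurement.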

Sequence of Beta Secretase enzyme (BACE) (P56817 46-501, species assumed): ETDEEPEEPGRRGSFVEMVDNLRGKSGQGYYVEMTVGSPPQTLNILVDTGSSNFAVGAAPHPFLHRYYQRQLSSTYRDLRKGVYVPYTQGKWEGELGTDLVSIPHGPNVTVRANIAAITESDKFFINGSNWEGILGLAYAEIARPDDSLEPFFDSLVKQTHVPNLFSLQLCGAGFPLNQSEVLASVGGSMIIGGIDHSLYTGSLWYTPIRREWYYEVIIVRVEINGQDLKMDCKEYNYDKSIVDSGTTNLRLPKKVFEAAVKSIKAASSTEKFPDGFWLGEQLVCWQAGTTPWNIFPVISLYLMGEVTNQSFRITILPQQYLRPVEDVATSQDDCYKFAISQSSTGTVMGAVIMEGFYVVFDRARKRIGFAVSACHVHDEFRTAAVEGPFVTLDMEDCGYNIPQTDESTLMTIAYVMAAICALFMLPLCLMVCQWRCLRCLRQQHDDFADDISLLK

Consider `COc1ncc(-c2ccc3c(c2)[C@@]2(COC(N)=N2)c2cc(N4CCC(F)(F)CC4)ncc2O3)cn1` [Example 419, (5S)-3-(4,4-difluoro-1-piperidinyl)-7-(2-methoxy-5-pyrimidinyl)spiro[chromeno[2,3-c]pyridine-5,4′-[1,3]oxazol]-2′-amine], for which the IC50 is 602 nM in test [1] and 172 nM in test [2].

Regarding `Cc1cnc(F)c(-c2ccc3c(c2)[C@@]2(COC(N)=N2)c2cc(N4CCC(F)(F)CC4)ncc2O3)c1` [Example 420, (5S)-3-(4,4-difluoro-1-piperidinyl)-7-(2-fluoro-5-methyl-3-pyridinyl)spiro[chromeno[2,3-c]pyridine-5,4′-[1,3]oxazol]-2′-amine], the IC50 in test [1] is 15.1 nM; in test [2], 1.2 nM.

For the compound `Cc1cnc(F)c(-c2ccc3c(c2)[C@@]2(COC(N)=N2)c2cc(N4CCC(F)(F)C4)ncc2O3)c1` [Example 421, (5S)-3-(3,3-difluoro-1-pyrrolidinyl)-7-(2-fluoro-5-methyl-3-pyridinyl)spiro[chromeno[2,3-c]pyridine-5,4′-[1,3]oxazol]-2′-amine], the IC50 stood at 5.3 nM in test [1] and 0.5 nM in test [2].

Regarding `Cc1cnc(F)c(-c2ccc3c(c2)[C@@]2(COC(N)=N2)c2cc(-c4ccnc(F)c4)ncc2O3)c1` [Example 422, (5S)-7-(2-fluoro-5-methyl-3-pyridinyl)-3-(2-fluoro-4-pyridinyl)spiro[chromeno[2,3-c]pyridine-5,4′-[1,3]oxazol]-2′-amine], the IC50 in test [1] came to 23.2 nM; in test [2], 2.1 nM.

Regarding `NC1=N[C@@]2(CO1)c1cc(-c3ccc(N4CCC(F)(F)C4)nc3)ccc1Oc1cnc(N3CCC(F)(F)C3)cc12` [Example 423, (5S)-3-(3,3-difluoro-1-pyrrolidinyl)-7-(6-(3,3-difluoro-1-pyrrolidinyl)-3-pyridinyl)spiro[chromeno[2,3-c]pyridine-5,4′-[1,3]oxazol]-2′-amine], the values for the IC50 in test [1] and in test [2] were 402 nM and 458 nM, respectively.

On to `N#Cc1cccc(-c2ccc3c(c2)[C@@]2(COC(N)=N2)c2cc(N4CCC(F)(F)CC4)ncc2O3)c1` [Example 424, 3-((5S)-2′-amino-3-(4,4-difluoro-1-piperidinyl)spiro[chromeno[2,3-c]pyridine-5,4′-[1,3]oxazol]-7-yl)benzonitrile], for which the IC50 in test [1] was 18 nM; in test [2], 1.5 nM.

Regarding `N#Cc1cccc(-c2ccc3c(c2)[C@@]2(COC(N)=N2)c2cc(N4CC[C@@H](F)C4)ncc2O3)c1` [Example 425, 3-((5S)-2′-amino-3-((3R)-3-fluoro-1-pyrrolidinyl)spiro[chromeno[2,3-c]pyridine-5,4′-[1,3]oxazol]-7-yl)benzonitrile], the IC50 in test [1] came out at 4.8 nM; in test [2], 0.8 nM.

`N#Cc1cccc(-c2ccc3c(c2)[C@@]2(COC(N)=N2)c2cc(N4CC[C@H](F)C4)ncc2O3)c1` [Example 426, 3-((5S)-2′-amino-3-((3S)-3-fluoro-1-pyrrolidinyl)spiro[chromeno[2,3-c]pyridine-5,4′-[1,3]oxazol]-7-yl)benzonitrile]: the IC50 in test [1] amounted to 16.8 nM; in test [2], 3.5 nM.

Regarding `NC1=N[C@@]2(CO1)c1cc(-c3cncc(N4CCC(F)(F)C4)c3)ccc1Oc1cnc(Cl)cc12` [Example 427, (5S)-3-chloro-7-(5-(3,3-difluoro-1-pyrrolidinyl)-3-pyridinyl)spiro[chromeno[2,3-c]pyridine-5,4′-[1,3]oxazol]-2′-amine], the values for the IC50 in test [1] and in test [2] were 610 nM and 640 nM, respectively.

As for `NC1=N[C@@]2(CO1)c1cc(-c3cncc(N4CC[C@H](F)C4)c3)ccc1Oc1cnc(Cl)cc12` [Example 428, (5S)-3-chloro-7-(5-((3S)-3-fluoro-1-pyrrolidinyl)-3-pyridinyl)spiro[chromeno[2,3-c]pyridine-5,4′-[1,3]oxazol]-2′-amine], the IC50 in test [1] worked out at 2200 nM; in test [2] it was 604 nM.

With `NC1=N[C@@]2(CO1)c1cc(-c3cncc(N4CC[C@@H](F)C4)c3)ccc1Oc1cnc(Cl)cc12` [Example 429, (5S)-3-chloro-7-(5-((3R)-3-fluoro-1-pyrrolidinyl)-3-pyridinyl)spiro[chromeno[2,3-c]pyridine-5,4′-[1,3]oxazol]-2′-amine], the IC50 in test [1] is 2210 nM; in test [2] it was 3230 nM.

In the case of `NC1=N[C@@]2(CO1)c1cc(-c3cccnc3F)ccc1Oc1cnc(N3CCCC(F)(F)C3)cc12` [Example 430, (5S)-3-(3,3-difluoro-1-piperidinyl)-7-(2-fluoro-3-pyridinyl)spiro[chromeno[2,3-c]pyridine-5,4′-[1,3]oxazol]-2′-amine], the IC50 was determined as 6.9 nM in test [1] and 0.6 nM in test [2].

For the compound `COc1ccc2c(c1)C1(COC(N)=N1)c1cc(N3CCC(F)(F)C3)ncc1O2` (stereo not shown) [Example 431, 3-(3,3-difluoro-1-pyrrolidinyl)-7-methoxyspiro[chromeno[2,3-c]pyridine-5,4′-[1,3]oxazol]-2′-amine], the values for the IC50 in test [1] and in test [2] were 10000 nM and 1730 nM, respectively.

In the case of `CC(C)(C)/C=C/c1cc2c(cn1)Oc1ccc(-c3ccc(F)nc3)cc1[C@@]21COC(N)=N1` [Example 434, (5S)-3-((1E)-3,3-dimethyl-1-buten-1-yl)-7-(6-fluoro-3-pyridinyl)spiro[chromeno[2,3-c]pyridine-5,4′-[1,3]oxazol]-2′-amine], the results for the IC50 in test [1] and in test [2] were 31.7 nM and 3 nM, respectively.

In the case of `CC(C)N(C)c1cc2c(cn1)Oc1ccc(-c3cccnc3)cc1[C@@]21COC(N)=N1` [Example 435, (5S)-N~3~-methyl-N~3~-(1-methylethyl)-7-(3-pyridinyl)spiro[chromeno[2,3-c]pyridine-5,4′-[1,3]oxazole]-2′,3-diamine], the IC50 in test [1] was found to be 29.6 nM; in test [2], 5.6 nM.

On to `NC1=N[C@@]2(CO1)c1cc(-c3cccnc3F)ccc1Oc1cnc(N3CCC(F)CC3)cc12` [Example 436, (5S)-3-(4-fluoro-1-piperidinyl)-7-(2-fluoro-3-pyridinyl)spiro[chromeno[2,3-c]pyridine-5,4′-[1,3]oxazol]-2′-amine], for which the IC50 in test [1] amounted to 8 nM; in test [2] it was 0.6 nM.

Regarding `CC1(COc2ccc3c(c2)[C@@]2(COC(N)=N2)c2cc(Br)cc(F)c2O3)COC1` [Example 437, (4S)-2′-bromo-4′-fluoro-7′-((3-methyl-3-oxetanyl)methoxy)spiro[1,3-oxazole-4,9′-xanthen]-2-amine], the values for the IC50 in test [1] and in test [2] were 1920 nM and 202 nM, respectively.

As to `CC1(COc2ccc3c(c2)[C@@]2(COC(N)=N2)c2cc(C4=CCOCC4)cc(F)c2O3)COC1` [Example 438, (4S)-2′-(3,6-dihydro-2H-pyran-4-yl)-4′-fluoro-7′-((3-methyl-3-oxetanyl)methoxy)spiro[1,3-oxazole-4,9′-xanthen]-2-amine], the IC50 in test [1] is 34.6 nM; in test [2], 9 nM.

For the compound `Cc1cc(-c2cc(F)c3c(c2)[C@]2(COC(N)=N2)c2cc(OCC4(C)COC4)ccc2O3)ccn1` [Example 439, (4S)-4′-fluoro-7′-((3-methyl-3-oxetanyl)methoxy)-2′-(2-methyl-4-pyridinyl)spiro[1,3-oxazole-4,9′-xanthen]-2-amine], the IC50 in test [1] was determined as 156 nM; in test [2] it was 186 nM.

`Cc1ccc(-c2cc(F)c3c(c2)[C@]2(COC(N)=N2)c2cc(OCC4(C)COC4)ccc2O3)cn1` [Example 440, (4S)-4′-fluoro-7′-((3-methyl-3-oxetanyl)methoxy)-2′-(6-methyl-3-pyridinyl)spiro[1,3-oxazole-4,9′-xanthen]-2-amine]: the IC50 in test [1] was found to be 16.9 nM; in test [2], 11.7 nM.
